Among the data in ChEMBL document CHEMBL5465560, “Selectivity Literature for EUbOPEN Chemogenomic Library” (2024) are % of control and % of inhibition values, retold here.

In experiment [1] the target is T1, Serine/threonine-protein kinase D1 (Homo sapiens) (UniProt Q15139).
T1 sequence (whole entry): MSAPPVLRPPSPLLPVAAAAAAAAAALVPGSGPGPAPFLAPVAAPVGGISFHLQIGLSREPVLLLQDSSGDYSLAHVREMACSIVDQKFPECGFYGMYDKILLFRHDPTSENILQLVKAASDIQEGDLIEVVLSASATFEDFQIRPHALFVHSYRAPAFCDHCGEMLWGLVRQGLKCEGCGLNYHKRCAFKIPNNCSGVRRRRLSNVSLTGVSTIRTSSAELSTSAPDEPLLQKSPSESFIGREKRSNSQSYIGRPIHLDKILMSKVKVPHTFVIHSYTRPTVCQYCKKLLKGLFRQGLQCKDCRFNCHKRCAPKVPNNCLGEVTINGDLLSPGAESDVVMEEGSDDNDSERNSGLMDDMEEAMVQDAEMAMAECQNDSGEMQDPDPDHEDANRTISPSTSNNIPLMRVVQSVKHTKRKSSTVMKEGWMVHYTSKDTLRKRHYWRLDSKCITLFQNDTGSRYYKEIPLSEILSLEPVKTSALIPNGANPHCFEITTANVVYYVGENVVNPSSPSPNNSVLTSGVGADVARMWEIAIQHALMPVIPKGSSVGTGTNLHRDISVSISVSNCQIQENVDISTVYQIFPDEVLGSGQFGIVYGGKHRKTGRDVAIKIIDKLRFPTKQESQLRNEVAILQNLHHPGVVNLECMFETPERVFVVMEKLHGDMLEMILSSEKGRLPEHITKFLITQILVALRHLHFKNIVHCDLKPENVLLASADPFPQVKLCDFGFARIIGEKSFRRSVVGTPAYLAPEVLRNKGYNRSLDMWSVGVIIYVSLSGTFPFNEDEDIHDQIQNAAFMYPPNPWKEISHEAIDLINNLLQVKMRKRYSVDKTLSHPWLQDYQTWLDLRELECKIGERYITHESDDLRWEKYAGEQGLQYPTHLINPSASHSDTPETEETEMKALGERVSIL
Nature of the experiment: Selectivity interaction (Ambit KINOMEscan and KiNATiv profiling in Jurkat cells) EUB0000090b PRKD1. The class given is cell-based. To be noted: at 1 µM.

In experiment [2] the target is T2, Serine/threonine-protein kinase TNNI3K (Homo sapiens) (UniProt Q59H18).
T2 sequence (whole entry): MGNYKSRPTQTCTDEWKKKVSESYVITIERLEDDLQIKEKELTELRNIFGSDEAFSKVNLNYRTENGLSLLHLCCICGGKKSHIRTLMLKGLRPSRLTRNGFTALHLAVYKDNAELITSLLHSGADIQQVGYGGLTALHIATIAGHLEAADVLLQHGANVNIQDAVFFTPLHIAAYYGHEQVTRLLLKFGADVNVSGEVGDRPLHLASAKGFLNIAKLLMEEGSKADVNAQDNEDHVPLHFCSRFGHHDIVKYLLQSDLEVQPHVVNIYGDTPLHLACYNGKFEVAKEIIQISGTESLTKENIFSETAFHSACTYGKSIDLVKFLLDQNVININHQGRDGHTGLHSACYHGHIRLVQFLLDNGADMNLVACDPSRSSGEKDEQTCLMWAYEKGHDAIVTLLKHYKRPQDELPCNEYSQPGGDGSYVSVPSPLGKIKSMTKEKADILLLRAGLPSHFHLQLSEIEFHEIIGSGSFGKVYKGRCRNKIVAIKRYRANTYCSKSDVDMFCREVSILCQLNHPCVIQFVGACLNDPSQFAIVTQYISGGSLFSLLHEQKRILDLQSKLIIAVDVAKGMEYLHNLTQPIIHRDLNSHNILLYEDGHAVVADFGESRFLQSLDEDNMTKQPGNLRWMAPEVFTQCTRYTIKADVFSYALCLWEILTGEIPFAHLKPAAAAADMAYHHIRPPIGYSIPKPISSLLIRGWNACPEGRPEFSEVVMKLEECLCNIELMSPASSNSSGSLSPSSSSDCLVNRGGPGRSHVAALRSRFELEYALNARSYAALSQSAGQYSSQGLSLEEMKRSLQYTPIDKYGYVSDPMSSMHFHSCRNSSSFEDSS
Nature of the experiment: Selectivity interaction (Ambit KINOMEscan and KiNATiv profiling in Jurkat cells) EUB0000090b TNNI3K. To be noted: at 1 µM. The class given is cell-based.

Experiment [3] concerns the target Mitogen-activated protein kinase kinase kinase 9 (Homo sapiens) (UniProt P80192). The experiment is described as follows: Selectivity interaction (Kinase panel (Invitrogen)) EUB0000639a MAP3K9. To be noted: at 200 nM.
Experiment [4] concerns the target T3, Testis-specific serine/threonine-protein kinase 1 (Homo sapiens) (UniProt Q9BXA7).
T3 sequence (whole entry): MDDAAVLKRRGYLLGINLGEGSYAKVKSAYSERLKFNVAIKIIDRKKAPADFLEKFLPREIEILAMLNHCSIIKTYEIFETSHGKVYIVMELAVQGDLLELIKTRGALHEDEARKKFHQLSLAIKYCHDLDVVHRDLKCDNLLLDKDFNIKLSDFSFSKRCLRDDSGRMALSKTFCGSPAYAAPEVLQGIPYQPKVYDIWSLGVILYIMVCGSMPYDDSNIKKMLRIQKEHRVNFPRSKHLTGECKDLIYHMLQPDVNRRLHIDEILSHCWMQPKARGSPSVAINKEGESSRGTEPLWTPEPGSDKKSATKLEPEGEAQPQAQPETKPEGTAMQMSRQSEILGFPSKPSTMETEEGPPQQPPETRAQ
Nature of the experiment: Selectivity interaction (KinomeScan (DiscoverX)) EUB0001049a TSSK1B. To be noted: at 1 µM.

In experiment [5] the target is T4, cAMP-dependent protein kinase catalytic subunit PRKX (Homo sapiens) (UniProt P51817).
T4 sequence (whole entry): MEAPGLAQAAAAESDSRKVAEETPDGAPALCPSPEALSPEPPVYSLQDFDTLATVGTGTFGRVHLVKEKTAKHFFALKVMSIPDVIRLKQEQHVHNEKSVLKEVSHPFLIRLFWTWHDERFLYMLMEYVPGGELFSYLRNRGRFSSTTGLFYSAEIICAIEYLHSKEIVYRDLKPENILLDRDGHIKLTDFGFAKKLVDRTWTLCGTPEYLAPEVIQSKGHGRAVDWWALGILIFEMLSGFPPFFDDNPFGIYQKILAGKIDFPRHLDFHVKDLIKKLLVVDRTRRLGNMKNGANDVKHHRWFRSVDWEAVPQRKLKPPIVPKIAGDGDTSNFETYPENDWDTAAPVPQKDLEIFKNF
Nature of the experiment: Selectivity interaction (KinomeScan (DiscoverX)) EUB0000695a PRKX. To be noted: at 100 nM.

The target in experiment [6] is Ribosomal protein S6 kinase alpha-3 (Homo sapiens, UniProt P51812). The experiment is described as follows: Selectivity interaction (KinomeScan (DiscoverX)) EUB0000695a RPS6KA3. To be noted: at 100 nM.
Chain of Ribosomal protein S6 kinase alpha-3 (P51812 whole entry): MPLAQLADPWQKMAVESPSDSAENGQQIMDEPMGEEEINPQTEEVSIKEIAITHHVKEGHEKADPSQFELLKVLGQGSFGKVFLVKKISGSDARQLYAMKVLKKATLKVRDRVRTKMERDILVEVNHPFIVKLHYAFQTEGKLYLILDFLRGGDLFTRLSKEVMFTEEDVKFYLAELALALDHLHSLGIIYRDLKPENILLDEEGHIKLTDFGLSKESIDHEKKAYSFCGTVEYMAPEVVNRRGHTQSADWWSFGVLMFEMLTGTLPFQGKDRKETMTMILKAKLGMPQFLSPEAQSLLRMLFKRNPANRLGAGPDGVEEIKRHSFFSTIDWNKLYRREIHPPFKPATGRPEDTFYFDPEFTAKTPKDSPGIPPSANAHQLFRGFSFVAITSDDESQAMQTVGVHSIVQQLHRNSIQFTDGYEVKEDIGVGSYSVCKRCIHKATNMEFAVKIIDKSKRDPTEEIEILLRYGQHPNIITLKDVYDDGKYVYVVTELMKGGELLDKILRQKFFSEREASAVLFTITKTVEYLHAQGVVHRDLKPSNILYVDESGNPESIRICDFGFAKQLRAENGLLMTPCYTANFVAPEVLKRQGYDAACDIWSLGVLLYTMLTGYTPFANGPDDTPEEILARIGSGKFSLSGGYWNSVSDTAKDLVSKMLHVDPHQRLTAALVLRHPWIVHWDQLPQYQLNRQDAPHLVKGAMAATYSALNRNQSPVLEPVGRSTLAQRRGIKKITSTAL

Chain of Mitogen-activated protein kinase kinase kinase 9 (Homo sapiens) (P80192 whole entry, looked up): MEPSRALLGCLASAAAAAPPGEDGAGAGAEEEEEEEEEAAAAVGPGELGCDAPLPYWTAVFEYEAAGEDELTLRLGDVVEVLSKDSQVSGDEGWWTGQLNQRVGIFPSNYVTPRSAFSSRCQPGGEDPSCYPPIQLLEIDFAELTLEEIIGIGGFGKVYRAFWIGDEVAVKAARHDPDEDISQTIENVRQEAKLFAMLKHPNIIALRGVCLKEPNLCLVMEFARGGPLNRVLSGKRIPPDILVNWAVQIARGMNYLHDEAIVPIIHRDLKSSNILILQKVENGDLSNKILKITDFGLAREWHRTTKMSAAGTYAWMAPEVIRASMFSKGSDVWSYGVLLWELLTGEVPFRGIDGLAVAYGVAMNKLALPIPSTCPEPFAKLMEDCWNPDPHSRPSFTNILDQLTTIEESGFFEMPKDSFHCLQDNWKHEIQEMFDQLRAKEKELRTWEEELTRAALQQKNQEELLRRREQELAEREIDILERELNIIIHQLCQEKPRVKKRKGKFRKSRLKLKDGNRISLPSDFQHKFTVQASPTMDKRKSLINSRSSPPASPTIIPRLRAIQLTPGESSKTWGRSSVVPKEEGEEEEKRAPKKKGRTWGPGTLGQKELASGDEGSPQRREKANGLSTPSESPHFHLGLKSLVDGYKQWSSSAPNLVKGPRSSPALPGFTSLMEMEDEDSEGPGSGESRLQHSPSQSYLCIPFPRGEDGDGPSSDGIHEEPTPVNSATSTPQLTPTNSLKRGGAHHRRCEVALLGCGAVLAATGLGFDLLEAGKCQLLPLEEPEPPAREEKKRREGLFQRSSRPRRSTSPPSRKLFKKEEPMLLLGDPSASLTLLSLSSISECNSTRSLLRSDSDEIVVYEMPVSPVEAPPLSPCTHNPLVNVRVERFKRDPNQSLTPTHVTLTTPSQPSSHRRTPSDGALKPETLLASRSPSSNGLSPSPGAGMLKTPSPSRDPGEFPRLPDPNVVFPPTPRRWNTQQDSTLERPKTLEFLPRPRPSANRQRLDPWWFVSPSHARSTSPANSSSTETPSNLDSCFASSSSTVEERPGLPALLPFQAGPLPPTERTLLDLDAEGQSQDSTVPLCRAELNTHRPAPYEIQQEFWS

For the compound `CN(C)C/C=C/C(=O)Nc1ccc(C(=O)N2CCCC(Nc3ncc(Cl)c(-c4c[nH]c5ccccc45)n3)C2)cc1` (stereo unspecified), the % of control in experiment [1] was 31%; in experiment [2], 86%.
Consider `CC[C@@H]1[C@H](F)C(=O)N[C@@H]1COc1nccc2cc(C(N)=O)c(OC)cc12` [ZIMLOVISERTIB], for which the % of inhibition in experiment [3] was 5.9%.
In the case of `COc1cc(Nc2nc(C)cc(-c3cnn4nc(OC)ccc34)n2)cc(C(F)(F)F)c1`, the % of control in experiment [4] is 100%.
Regarding `Cc1cc(F)c(C(=O)Nc2cccc(-c3nncn3C(C)C)n2)cc1-n1cnc(C2CC2)c1`, the % of control in experiment [5] came out at 100%; in experiment [6] it was 98%.
